The source of these data is patent US20150307491A1, “SUBSTITUTED PYRIDOPYRAZINES AS SYK INHIBITORS” (HUTCHISON MEDIPHARMA LIMITED, priority 2012, published 2015).

This experiment has as its system RBL-2H3 cells. Description: IgE-induced Beta-hexosaminidase secretion in RBL-2H3 cells. The format is cell-based. The conditions noted are these: Rattus norvegicus; RBL-2H3 cells sensitized with SPE-7, stimulated with DNP-BSA. As to the method: For the determination of IgE-induced Beta-hexosaminidase secretion, RBL-2H3 cells (SIBS) are seeded in 96 well plates at 4×10^4 cells per well and incubated in MEM media with 15% FBS and Glutamine ([…]) for 4 hours and sensitized with 0.5 ug/ml of SPE-7 overnight. Cells are washed 3 times with Tyrode's buffer and incubated in the presence or absence of various concentrations of the testing compound for 20 min at 37° C., 5% CO2. Cells are stimulated by adding 10 μL of DNP-BSA solution (150 ng/mL) to each well and incubating for 45 minutes at 37° C., 5% CO2. Then, 45 μL of the supernatant is taken and incubated with 100 μL of 1 mM 4-Nitrophenyl N-acetyl-β-D-glucosaminide (Sigma, Cat. No. N9376), which is diluted in 0.05 M citrate buffer (pH 4.5), for 1.5 hr at 37° C. The reactions are quenched by adding 185 μL of 0.05 M sodium carbonate buffer (pH 10.0). Plates are read at 405 nm on Multiskan (MK 3).
Usually IC50 stands for the midpoint of a concentration-inhibition curve. As to `Cc1nccn1CCS(=O)(=O)N1CCO[C@H](COc2nc(-c3ccc(N(C)C)cc3)cc3nccnc23)C1` [Compound 101, (S)—N,N-dimethyl-4-(5-((4-(2-(2-methyl-1H-imidazol-1-yl)ethylsulfonyl)morpholin-2-yl)methoxy)pyrido[4,3-b]pyrazin-7-yl)aniline], the IC50 fell in the range of 100 to 1000 nM.
For the molecule `NS(=O)(=O)N1CCO[C@H](COc2nc(-c3ccc(N4CCOCC4)cc3)cc3nccnc23)C1` [Compound 62], the IC50 is 1 to 100 nM.
The value for `CNC(=O)COc1ccc(-c2cc3nccnc3c(OC[C@@H]3CN(S(C)(=O)=O)CCO3)n2)cc1` [Compound 129] was 100 to 1000 nM; that for `CS(=O)(=O)N1CCO[C@H](COc2nc(-c3ccc(N4CCN(CCO)CC4)cc3)cc3nccnc23)C1` [Compound 27] was 100 to 1000 nM.
The value for `CS(=O)(=O)N1CCO[C@H](COc2nc(-c3ccc4c(c3)OCO4)cc3nccnc23)C1` [Compound 110] was 100 to 1000 nM; that for `CC(=O)N1CCN(c2ccc(-c3cc4nccnc4c(OC[C@@H]4CN(S(C)(=O)=O)CCO4)n3)cc2)CC1` [Compound 122] was 1 to 100 nM.
The value for `CC(C)C(=O)N1CCO[C@H](COc2nc(-c3ccc(N(C)C)cc3)cc3nccnc23)C1` [Compound 68] was 100 to 1000 nM; that for `CN(C)c1ccc(-c2cc3nccnc3c(OC[C@@H]3CN(S(=O)(=O)CCN4CC[C@@H](O)C4)CCO3)n2)cc1` [Compound 102] was 100 to 1000 nM; that for `C[C@@H]1CN(c2ccc(-c3cc4nccnc4c(OC[C@@H]4CN(S(C)(=O)=O)CCO4)n3)cc2)C[C@H](C)O1` [Compound 19] was 100 to 1000 nM.
In the case of `CN(C)c1ccc(-c2cc3nccnc3c(OC[C@@H]3CN(C(=O)c4cccnc4)CCO3)n2)cc1` [Compound 78], the IC50 fell in the range of 1 to 100 nM.
As to `COc1cc(-c2cc3nccnc3c(OC[C@@H]3CN(S(C)(=O)=O)CCO3)n2)ccc1OCCN(C)C` [Compound 126], the IC50 lay in the range of 100 to 1000 nM.
The value for `COCCN1CCC(c2ccc(-c3cc4nccnc4c(OC[C@@H]4CN(S(C)(=O)=O)CCO4)n3)cc2)CC1` [Compound 59] was 100 to 1000 nM; that for `O=S(=O)(C1CC1)N1CCO[C@H](COc2nc(-c3ccc(N4CCOCC4)cc3)cc3nccnc23)C1` [Compound 83] was 1 to 100 nM; that for `CN(C)c1ccc(-c2cc3nccnc3c(OC[C@@H]3CN(C(N)=O)CCO3)n2)cc1` [Compound 136] was 1 to 100 nM.
In the case of `CN(C)c1ccc(-c2cc3nccnc3c(OC[C@@H]3CN(C(=O)C4CCOCC4)CCO3)n2)cc1` [Compound 73], the IC50 lay within 100 to 1000 nM.
The value for `CNc1ccc(-c2cc3nccnc3c(OC[C@@H]3CN(S(C)(=O)=O)CCO3)n2)cc1` [Compound 36] was 1 to 100 nM; that for `CN(CC#N)CCS(=O)(=O)N1CCO[C@H](COc2nc(-c3ccc(N(C)C)cc3)cc3nccnc23)C1` [Compound 104] was 100 to 1000 nM.
The value for `CN(C)c1ccc(-c2cc3nccnc3c(OC[C@@H]3CN(C(=O)CCC#N)CCO3)n2)cc1` [Compound 77] was 100 to 1000 nM; that for `CS(=O)(=O)N1CCO[C@H](COc2nc(-c3ccc4ncccc4c3)cc3nccnc23)C1` [Compound 111] was 100 to 1000 nM; that for `CNC(=O)N1CCO[C@H](COc2nc(-c3ccc(N(C)C)cc3)cc3nccnc23)C1` [Compound 137] was 1 to 100 nM.
The value for `CN(C)c1ccc(-c2cc3nccnc3c(OC[C@@H]3CN(C(=O)[C@@H]4CCOC4)CCO3)n2)cc1` [Compound 72] was 100 to 1000 nM.
For the molecule `NS(=O)(=O)N1CCO[C@H](COc2nc(-c3ccc(N4CCCCC4)cc3)cc3nccnc23)C1` [Compound 28], the half-maximal inhibitory concentration (IC50) was 100 to 1000 nM.
With `Cn1ncc2cc(-c3cc4nccnc4c(OC[C@@H]4CN(S(C)(=O)=O)CCO4)n3)ccc21` [Compound 105], the half-maximal inhibitory concentration (IC50) is 1 to 100 nM.
The value for `CS(=O)(=O)N1CCO[C@H](COc2nc(-c3ccc(N4CCOCC4)c(F)c3)cc3nccnc23)C1` [Compound 7] was 100 to 1000 nM.
Consider `Cn1ccc2ccc(-c3cc4nccnc4c(OC[C@@H]4CN(S(C)(=O)=O)CCO4)n3)cc21` [Compound 120], for which the half-inhibitory concentration (IC50) was in the range of 1 to 100 nM.
In the case of `CC1CN(c2ccc(-c3cc4nccnc4c(OC[C@@H]4CN(S(C)(=O)=O)CCO4)n3)cc2)CCO1` (stereo partly shown) [Compound 18], the IC50 fell in the range of 1 to 100 nM.
The value for `COC1CCN(c2ccc(-c3cc4nccnc4c(OC[C@@H]4CN(S(C)(=O)=O)CCO4)n3)cc2)CC1` [Compound 31] was 1 to 100 nM.
The value for `CS(=O)(=O)N1CCO[C@H](COc2nc(-c3ccc(C4CCOCC4)cc3)cc3nccnc23)C1` [Compound 11] was 1 to 100 nM.
As to `CN(C)c1ccc(-c2cc3nccnc3c(OC[C@@H]3CN(C(=O)c4ncc[nH]4)CCO3)n2)cc1` [Compound 86], the IC50 is 100 to 1000 nM.
The value for `CN1CCC(c2ccc(-c3cc4nccnc4c(OC[C@@H]4CN(S(C)(=O)=O)CCO4)n3)cc2)CC1` [Compound 8] was 100 to 1000 nM; that for `O=C(C(F)F)N1CCO[C@H](COc2nc(-c3ccc(N4CCOCC4)cc3)cc3nccnc23)C1` [Compound 61] was 1 to 100 nM; that for `COc1ccc(-c2cc3nccnc3c(OC[C@@H]3CN(S(C)(=O)=O)CCO3)n2)cc1` [Compound 38] was 100 to 1000 nM.
The value for `CCN(CC)c1ccc(-c2cc3nccnc3c(OC[C@@H]3CN(C(C)=O)CCO3)n2)cc1` [Compound 131] was 1 to 100 nM; that for `CS(=O)(=O)N1CCO[C@H](COc2nc(-c3ccc(N4CCNCC4)cc3)cc3nccnc23)C1` [Compound 14] was 100 to 1000 nM; that for `CN1CCN(c2ccc(-c3cc4nccnc4c(OC[C@@H]4CN(S(N)(=O)=O)CCO4)n3)cc2)CC1` [Compound 64] was 100 to 1000 nM.
The value for `CS(=O)(=O)N1CCO[C@H](COc2nc(-c3ccc(N4CCCCC4)cc3)cc3nccnc23)C1` [Compound 21] was 1 to 100 nM.
In the case of `NC(=O)N1CCO[C@H](COc2nc(-c3ccc(N4CCOCC4)cc3)cc3nccnc23)C1` [Compound 63], the IC50 lay in the range of 100 to 1000 nM.
As for `CNc1ccc(-c2cc3nccnc3c(OC[C@@H]3CN(C(=O)[C@H]4CCOC4)CCO3)n2)cc1` [Compound 50], the concentration for half-maximal inhibition (IC50) fell in the range of 100 to 1000 nM.
The value for `Cc1cc(-c2cc3nccnc3c(OC[C@@H]3CN(S(C)(=O)=O)CCO3)n2)ccc1N(C)C` [Compound 134] was 1 to 100 nM; that for `CS(=O)(=O)N1CCO[C@H](COc2nc(-c3ccc(C4CCN(CCO)CC4)cc3)cc3nccnc23)C1` [Compound 58, (S)-2-(4-(4-(5-((4-(methylsulfonyl)morpholin-2-yl)methoxy)pyrido[3,4-b]pyrazin-7-yl)phenyl)piperidin-1-yl)ethanol] was 100 to 1000 nM; that for `CN1CCN(c2ccc(-c3cc4nccnc4c(OC[C@@H]4CN(S(C)(=O)=O)CCO4)n3)cc2)CC1` [Compound 13] was 1 to 100 nM.
As to `CN(C)c1ccc(-c2cc3nccnc3c(OC[C@@H]3CN(C(=O)c4cnn(C)c4)CCO3)n2)cc1` [Compound 87], the 50% inhibitory concentration (IC50) was 100 to 1000 nM.
For `CNc1ccc(-c2cc3nccnc3c(O[C@@H]3CCOC3)n2)cc1` [Compound 133], the IC50 is 1 to 100 nM.
The value for `O=C(C(F)F)N1CCO[C@H](COc2nc(-c3ccc(N4CCNCC4)cc3)cc3nccnc23)C1` [Compound 6, (S)-2,2-difluoro-1-(2-((7-(4-(piperazin-1-yl)phenyl)pyrido[4,3-b]pyrazin-5-yloxy)methyl)morpholino)ethanone] was 100 to 1000 nM.
`CC(=O)N1CCC(c2ccc(-c3cc4nccnc4c(OC[C@@H]4CN(C(C)=O)CCO4)n3)cc2)CC1` [Compound 54]: the IC50 was 100 to 1000 nM.
As to `CN1CCN(c2ccc(-c3cc4nccnc4c(O[C@@H]4CCOC4)n3)cc2)CC1` [Compound 125], the concentration for half-maximal inhibition (IC50) lay within 1 to 100 nM.
The value for `CNc1ccc(-c2cc3nccnc3c(OC[C@@H]3CN(S(C)(=O)=O)CCO3)n2)cc1F` [Compound 52] was 1 to 100 nM; that for `NS(=O)(=O)N1CCO[C@H](COc2nc(-c3ccc(N4CCC(F)(F)CC4)cc3)cc3nccnc23)C1` [Compound 29] was 100 to 1000 nM; that for `CN(C)c1ccc(-c2cc3nccnc3c(OC[C@@H]3CN(C(=O)CC#N)CCO3)n2)cc1` [Compound 76] was 1 to 100 nM.
For the molecule `CCS(=O)(=O)N1CCO[C@H](COc2nc(-c3ccc(N(C)C)cc3)cc3nccnc23)C1` [Compound 88], the half-maximal inhibitory concentration (IC50) lay in the range of 1 to 100 nM.
`CN(C)c1ccc(-c2cc3nccnc3c(OC[C@@H]3CN(C(=O)[C@H]4CC[C@H](O)CC4)CCO3)n2)cc1` [Compound 74]: the 50% inhibitory concentration (IC50) is 100 to 1000 nM.
For `CNS(=O)(=O)N1CCO[C@H](COc2nc(-c3ccc(N4CCOCC4)cc3)cc3nccnc23)C1` [Compound 55], the IC50 fell in the range of 100 to 1000 nM.
